{"source": "patent US20070014722A1", "about": "“Method of treating human volume expansion mediated hypertension employing resibufogenin” (The Administrators of the Tulane Educational Fund, priority 2005, published 2007)", "key": {"[1]": {"system": "DOCA-salt uninephrectomized rats (volume expansion mediated hypertension)", "assay": "Blood pressure in DOCA-salt uninephrectomized rats (volume expansion mediated hypertension model)", "assay_type": "in vivo, rat", "procedure": "(§1) In order to confirm the effectiveness of resibufogenin in treating volume expansion mediated hypertension, experiments were performed. Animal models of volume expansion mediated hypertension were created in the laboratory in accordance with guidance provided in “Down-regulation of Phosphorylation of Renal Proximal Brush Border Membrane Protein in DOCA-salt hypertensive rats”. H. Cai et al., J Am Soc Nephrol 5:S26, (1994). These models consisted of the administration of a potent mineralocorticoid desoxycorticosterone (DOCA) to rats whose drinking water had been replaced with 0.9% saline and which had one kidney removed (uninephrectomy) in order to induce volume expansion mediated hypertension. This group of animals is listed as Group I. Group II was the uninephrectomy control group (“time control”). Another group (Group III) utilized the Goldblatt 2 kidney, 1 clip model to induce vasoconstrictive (renin-angiotensin mediated) form of essential hypertension. All of the blood pressures were measured in mm Hg.\nIn each group, a baseline blood pressure was taken. This is shown in the first column. Subsequently, 10 days to 2 weeks prior to the introduction of resibufogenin, the blood pressure was measured. This appears in the second column. In the third column, the blood pressure was measured 10 days after administration of resibufogenin. The rats in Groups I and III weighed about 200 to 250 gm with resibufogenin being administered in the amount of about 1.53 micrograms per 100 grams of body weight. […] It is also noted that in the Group II control, that there was no meaningful pattern of reduction in blood pressure.\nA dosage of approximately 1.53 micrograms […] with the rats weighing in the range of about 200-250 g was employed daily in order to determine the effectiveness of resibufogenin in the treatment of volume expansion mediated hypertension. The dosage was administered intraperitonially and the rats monitored after about three to four days of treatment. […]\nThe dosage was administered intraperitonially and the rats monitored after about three to four days of treatment. […]"}, "[2]": {"system": "Goldblatt 2 kidney, 1 clip model (renin-angiotensin mediated hypertension)", "assay": "Blood pressure in Goldblatt 2 kidney, 1 clip rats (vasoconstrictive hypertension model)", "assay_type": "in vivo, rat", "conditions": "Group III, two rats; about 1.53 micrograms per 100 grams body weight", "procedure": "as §1\nIn each group, a baseline blood pressure was taken. This is shown in the first column. Subsequently, 10 days to 2 weeks prior to the introduction of resibufogenin, the blood pressure was measured. This appears in the second column. In the third column, the blood pressure was measured 10 days after administration of resibufogenin. […]"}, "[3]": {"assay": "Biological activity as antiangiogenesis agent"}}, "note": "Several values for one entry are separate records, joined by “and”; a condition that tells them apart may be missing. Equal entries are not always repeated. Entries after “also recorded” stand apart in the source; their conditions may differ."}
{"smiles": "C[C@]12CC[C@H](O)C[C@H]1CC[C@@H]1[C@@H]2CC[C@]2(C)[C@@H](c3ccc(=O)oc3)C[C@H]3O[C@]132", "note": "[Resibufogenin, resibufogenin]", "values": [{"measurement": "Reduction in blood pressure (in words)", "setting": "[1]; Group I, four rats, 10 days after administration of resibufogenin", "value": "very substantial reduction in blood pressure; also recorded: meaningful reduction in blood pressure"}, {"measurement": "Blood Pressure After 10 days of Resibufogenin", "setting": "[1]; Group I, individual rats #1-#4, about 1.53 micrograms per 100 grams body weight daily, intraperitoneal, in DMSO, after 10 days", "value": "85 mmHg and 90 mmHg and 130 mmHg and 100 mmHg"}, {"measurement": "Reduction in blood pressure after treatment (in words)", "setting": "[1]; daily intraperitoneal dose, rats monitored after about three to four days of treatment", "value": "all of the rats experienced a substantial reduction in blood pressure"}, {"measurement": "Blood pressure response to resibufogenin (in words)", "setting": "[2]", "value": "neither animal responded to resibufogenin"}, {"measurement": "Biological activity as an antiangionesis agent", "setting": "[3]", "value": "not to be biologically active"}]}
